Measured values reported in US20250101104A1, “BISPECIFIC MOLECULE WITH TUNABLE AFFINITY TO A TARGETED ANTIGEN” (MABSWITCH INC., priority 2022, published 2025).

Experiments:
[1] = target: T1, Human CD3 epsilon&CD3 gamma Heterodimer Protein (Homo sapiens, UniProt P07766); assay: Bispecific functionality ELISA (captured CD3, detection with biotinylated CD33 Fc-fusion); type: binding; settings: affinity to the CD3 antigen
T1 construct: purchased Biorbyt Ltd, Cambridge, United Kingdom
Procedure: Bispecific functionality is tested in an ELISA using soluble Human CD3 epsilon&CD3 gamma Heterodimer Protein (Biorbyt Ltd, Cambridge, United Kingdom) that is captured to the ELISA plate surface and an Fc-fusion of CD33 that carried an AviTag™ (biotinylated) (BPS Bioscience, Inc., San Diego, USA) detected by HRP conjugated streptavidin (BPS Bioscience, Inc., San Diego, USA). Dilution curves of the protein A purified bispecific scFv-Fc constructs are compared. For control, a bispecific scFv-Fc construct wherein the linker between the OKT3 variable heavy chain sequence to the OKT3 variable light chain sequence is a non-switchable variant (GGGGSGGGGSGG GGS (SEQ ID NO: 365)) is constructed, produced and purified as described above.

[2] = tested on: CD3 positive Jurkat cells; assay: Switch activity on living cells, flow cytometry; type: cell-based; settings: incubated with the switch peptide variant SEQ ID NO:2
Procedure: The bispecific switchable anti-CD3/antiCD33 Fc fusion protein product MS42-13 is further tested for switch activity in the presence and absence of switch linkers on living cells using flow cytometry. For the cytofluorometry analysis, CD3 positive Jurkat cells (ATCC, Clone E6-1), cultivated in suspension culture as described by the provider, are seeded in FACS tubes and washed with 3 mL PBS supplemented with 2 mM EDTA and 2% (v/v) FCS (centrifugation for 5 min at 500×g and 4-C). Cells are incubated with […] of various dilutions of scFv-Fc bispecific antibody constructs (between 10 ng/mL and […]) for 1 h on ice. Cells are washed two times with 3 mL PBS (centrifugation for 5 min at 500×g and 4-C) and are incubated with 100 μL Fc-fusion of CD33 that carried an AviTag™ (biotinylated) (BPS Bioscience, Inc., San Diego, USA) (Fc-specific) for 1 h on ice in the dark in either the presence or absence of the switch peptides (1 μM or 10 μM). […] A minimum of 10^4 events are analyzed per sample. Analysis is performed with CXP analysis 2.2 software (Beckman Coulter, Fullerton, CA) and Mean Fluorescence Intensities (MFI) are determined using Flowjo™ software (Treestar).

[3] = mice; cited from earlier work
[4] = tested on: CD123+KG-1a; settings: cited from earlier work
[5] = tested on: TF-1 AML cell lines; settings: cited from earlier work
[6] = tested on: circulating CD123^+ cells; settings: cited from earlier work

T1 sequence (P07766 23-126 limits assumed): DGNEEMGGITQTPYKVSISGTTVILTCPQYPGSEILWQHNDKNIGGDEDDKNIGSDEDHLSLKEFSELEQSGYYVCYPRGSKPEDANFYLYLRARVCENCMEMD
T1 sequence (P09693 23-116 partner limits assumed): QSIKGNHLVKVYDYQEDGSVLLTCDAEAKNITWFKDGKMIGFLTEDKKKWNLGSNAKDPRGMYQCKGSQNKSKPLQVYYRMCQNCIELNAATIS

drop in EC50 compared to the construct with the non-switchable wild type Gly-Ser linker [1] [fold] | Substance | increase of half-maximal binding compared to the construct with the non-switchable linker (SEQ ID NO:365) [2] [fold] | serum half-life [3] [h] | EC50 of T cell-mediated killing [4] [ng/mL] | EC50 of T cell-mediated killing [5] [ng/mL] | T cell activation ([6]; cynomolgus monkeys) | depletion of circulating CD123+ cells including basophils and plasmacytoid dendritic cells ([6]; within 1 hour of administration)
24.6 | MS42-13: switchable bispecific anti-CD3/anti-CD33 scFv-Fc fusion: OKT3 scFv with calmodulin switch linker, gemtuzumab scFv, knob-into-hole Fc (SEQ ID NO:366, 367) | ≤ 21.3 | – | – | – | – | –
– | XmAb14045: Fc domain-containing bispecific antibody stimulating T cell-mediated killing of CD123+ cells | – | 149 | < 1 | < 1 | strongly activated T cells | over 99%
